In test [1] the target is T1, FhCL1 (Fasciola hepatica, UniProt Q7JNQ9).
T1 construct: gene CL1
T1 sequence (Q7JNQ9 108-326): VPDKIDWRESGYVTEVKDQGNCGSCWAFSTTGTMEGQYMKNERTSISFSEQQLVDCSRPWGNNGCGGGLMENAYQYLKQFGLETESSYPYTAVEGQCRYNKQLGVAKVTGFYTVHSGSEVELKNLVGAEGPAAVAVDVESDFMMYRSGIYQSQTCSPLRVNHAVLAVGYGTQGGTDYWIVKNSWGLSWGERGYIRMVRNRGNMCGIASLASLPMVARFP
As to the kind of experiment: biochemical. Set-up: fluorogenic peptide-AMC hydrolysis (Z-VLK-AMC FhCL1, Tos-GPR-AMC FhCL3), initial rates, 5 min preincubation. As to the method:
(§1) A 10 mM stock of each evaluated compound was prepared in dimethylsulfoxide (DMSO). Enzyme activity assays were conducted to evaluate the inhibitory capacity of the different compounds. FhCL1 and FhCL3 were used at nanomolar concentrations to measure initial rates during the first 10 min of the assay and compounds were tested at a moderate fixed dose of 10 μM. Briefly, each enzyme and compound were preincubated 5 minutes in a 96-well plate in 0.1M sodium phosphate buffer pH 6, 1 mM DTT and 1 mM EDTA at room temperature. The reaction was initiated by the addition of 20 μM of substrate, a synthetic peptide conjugated to the fluorophore 7-amino-4-methylcoumarin (AMC). Enzyme activity was measured by the increase in AMC fluorescence as peptide substrates were hydrolyzed (Z-VLK-AMC for FhCL1 and Tos-GPR-AMC for FhCL3) at an excitation wavelength of 340 nm and emission wavelength of 440 nm using a spectrofluorometer (Varioskan Thermo). Enzyme activity was expressed as RFU/s (relative fluorescence units of AMC released per unit of time). Each compound was tested in duplicate. A progress curve without enzyme was performed to control for non-catalyzed reactions between substrates and inhibitors and a spectrum from 300 to 450 nm wavelength was done for each inhibitor to verify that none of the compounds has optical activity in the measurement range. The percentage of enzyme inhibition was calculated as: 100 - (vi/vo) x 100, where vi and vo correspond to the initial rate of AMC fluorescence increase (RFU/s) with and without inhibitor, respectively. We evaluated forty flavonoids from three structural clusters of our own chemistry library as inhibitors of FhCL1 and FhCL3. Cluster I contained twenty-six chalcones modified in ring B (C1-C26, Fig 1A), cluster II contained naphtolchalcone derivatives (C27-C35, Fig 1B) and cluster III was composed of flavones modified in ring B (C36-C40, Fig 1B). Initially, we screened the compounds at a low concentration of 10 μM measuring initial rates during the first 10 min, finding activities ranging from 0% to 75% enzyme inhibition (Fig 1).

Test [2] deals with T2, FhCL3 (Fasciola hepatica, UniProt B3TM67).
T2 construct: gene CL3
T2 sequence (B3TM67 88-306): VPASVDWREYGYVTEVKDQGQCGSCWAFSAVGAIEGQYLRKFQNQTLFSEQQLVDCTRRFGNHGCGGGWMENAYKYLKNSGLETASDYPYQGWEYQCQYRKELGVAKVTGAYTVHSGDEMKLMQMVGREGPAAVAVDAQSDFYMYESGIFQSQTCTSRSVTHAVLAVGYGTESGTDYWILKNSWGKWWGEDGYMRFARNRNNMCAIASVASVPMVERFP
The experiment in a line: biochemical. Set-up: fluorogenic peptide-AMC hydrolysis (Z-VLK-AMC FhCL1, Tos-GPR-AMC FhCL3), initial rates, 5 min preincubation. Conditions: read-out: % inh. FhCL3. As to the method: as §1

Test [3] deals with T3, FhCL1 (Fasciola hepatica, UniProt Q7JNQ9).
T3 construct: gene CL1
As to the kind of experiment: fluorogenic Z-VLK-AMC enzyme assay, % inhibition at […]. The format is biochemical.

Test [4] concerns the target T3, FhCL1. As to the kind of experiment: biochemical. On the set-up: fluorogenic peptide-AMC hydrolysis (Z-VLK-AMC FhCL1, Tos-GPR-AMC FhCL3), initial rates, 5 min preincubation. How it is done: as §1
This is another data set of the same source.

Test [5] concerns the target T4, FhCL3 (Fasciola hepatica, UniProt B3TM67).
T4 construct: gene CL3
As to the kind of experiment: biochemical. Set-up: fluorogenic peptide-AMC hydrolysis (Z-VLK-AMC FhCL1, Tos-GPR-AMC FhCL3), initial rates, 5 min preincubation. Conditions: read-out: % inh. FhCL3. How it is done: as §1
This is another data set of the same source.

Test [6] addresses T4, FhCL3. As to the kind of experiment: fluorogenic Tos-GPR-AMC enzyme assay, % inhibition at […]. The format is biochemical.

Take `O=C(/C=C/c1cccs1)c1ccccc1O` [C24]: the inhibition at 10 µM against FhCL1 [1] was determined as 52 ± 5%; at FhCL3 [2], 9 ± 11%.
In the case of `O=C(/C=C/c1ccccn1)c1ccccc1O` [C22], the inhibition at 10 µM at FhCL1 [1] was 54 ± 7%; at FhCL3 [2] it was 0%.
In the same order, the values of `O=C(/C=C/c1ccco1)c1ccccc1O` [C23] are 57 ± 8% and 4 ± 10%.
In the same order, the values of `O=C(/C=C/c1ccc2ccccc2c1)c1ccccc1O` [C31] are 61 ± 2% and 41 ± 5%.
In the same order, the values of `COc1ccc(-c2cc(=O)c3ccccc3o2)cc1` [C39] are 20 ± 7% and 0%.
As to `O=C(/C=C/c1ccc2ccccc2c1)c1ccc2ccccc2c1O` [C33], the results for the inhibition at 10 µM at FhCL1 [1] and at FhCL3 [2] were 65 ± 6% and 29 ± 5%, respectively.
As for `O=C(/C=C/c1ccccc1)c1ccc2ccccc2c1` [C27], the inhibition at 10 µM against FhCL1 [3] is 65%; at FhCL3 [2], 13 ± 4%.
For `O=C(/C=C/c1cccc2ccccc12)c1c(O)ccc2ccccc12` [C34], the inhibition at 10 µM against FhCL1 [4] was found to be 75 ± 4%; at FhCL3 [5] it was 65 ± 6%.
Consider `O=C(CC(CC(=O)c1ccccc1)c1cccc2ccccc12)c1ccccc1` [C29], for which the inhibition at 10 µM against FhCL1 [1] stood at 17 ± 9%; at FhCL3 [2], 27 ± 2%.
In the same order, the values of `O=C(/C=C/c1cccc2ccccc12)c1ccccc1` [C28] are 38 ± 3% and 39 ± 5%.
In the case of `O=C(/C=C/c1ccc2ccccc2c1)c1ccccc1` [C30], the inhibition at 10 µM against FhCL1 [1] is 62 ± 2%; on FhCL3 [2], 38 ± 7%.
On the same counts, the results for `O=c1cc(-c2ccccc2)oc2ccccc12` [C36] are 5 ± 1% and 8 ± 4%.
Compound `O=C(/C=C/c1ccc(Cl)cc1)c1ccccc1O` [C10] registered an inhibition at 10 µM at FhCL1 [3] of 63%.
Take `O=C(/C=C/c1cccc2ccccc12)c1ccccc1O` [C32]: the inhibition at 10 µM on FhCL1 [1] was found to be 42 ± 6%; at FhCL3 [2], 32 ± 8%.
Regarding `O=c1cc(-c2ccc(Cl)cc2)oc2ccccc12` [C37], the inhibition at 10 µM came to 0% against FhCL1 [1] and 17 ± 1% at FhCL3 [2].
In the case of `O=C(/C=C/c1ccc2ccccc2c1)c1c(O)ccc2ccccc12` [C35], the inhibition at 10 µM at FhCL1 [3] was greater than 50%; at FhCL3 [6], greater than 50%; at FhCL1 [1], 67 ± 3%; at FhCL3 [2], 44 ± 6%.
For the compound `O=c1cc(-c2ccc(Br)cc2)oc2ccccc12` [C38], the results for the inhibition at 10 µM on FhCL1 [1] and on FhCL3 [2] were 21 ± 10% and 19 ± 3%, respectively.
`O=c1c(O)c(-c2ccc(O)c(O)c2)oc2cc(O)cc(O)c12` [C40, Quercetin]: the inhibition at 10 µM came out at 15 ± 8% on FhCL1 [4] and 8 ± 1% at FhCL3 [5].

These data come from PMC4962987, “Identification of Chalcones as Fasciola hepatica Cathepsin L Inhibitors Using a Comprehensive Experimental and Computational Approach” (PLoS Neglected Tropical Diseases, 2016).
